Measurements published in patent US9308187B2, “Adhesive patch comprising diclofenac sodium” (HISAMITSU PHARMACEUTICAL CO., INC., priority 2012, dated 2016).
Where two headings read alike, the source gives them in different places.

Experiment: Solubilities in a variety of solubilizers
Type: physicochemical
Conditions: organic solvent or mixture
Experimental: Thus, in order to search for components which suppress the time-dependent crystallization of diclofenac and diclofenac sodium and which can comprise diclofenac sodium in the adhesive layer at a high concentration (3% by mass or greater) of diclofenac, the solubilities of diclofenac and diclofenac sodium were measured in a variety of solubilizers.

Measured: solubility

O=C(O)Cc1ccccc1Nc1c(Cl)cccc1Cl [diclofenac]
≥ 100 mg/mL: N-methylpyrrolidone (NMP), solvent N-methylpyrrolidone, read-out: solubility in N-methylpyrrolidone (NMP) | dimethyl sulfoxide (DMSO), solvent dimethyl sulfoxide, read-out: solubility in dimethyl sulfoxide (DMSO) | dipropylene glycol (DPG), solvent dipropylene glycol, read-out: solubility in dipropylene glycol (DPG) | polyethylene glycol (PEG-400), solvent polyethylene glycol, read-out: solubility in polyethylene glycol (PEG-400)
